Data as given in PubChem BioAssay AID248 (DTP/NCI, 2004).
Toxic doses and inconclusive results are not listed. Rule as the data show it: active = T/C of 150% or more; inactive = T/C below 125%.

Test system: L1210 leukemia ip in BDF1 mice, survival T/C
Assay: NCI In Vivo Anticancer Drug Screen. Data for tumor model L1210 Leukemia (intraperitoneal) in B6D2F1 (BDF1) mice
Settings: endpoint: mean survival time, higher = longer survival
Method in brief: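 Transplantable tumor model; survival measured in treated vs vehicle control mice. Value = treated/control.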

[1] = dose: 100.0 mg/kg/injection, schedule: Q01DX009 (ip), vehicle: Klucel (hydroxypropylcellulose) (HPC)
[2] = dose: 200.0 mg/kg/injection, schedule: Q01DX009 (ip), vehicle: Klucel (hydroxypropylcellulose) (HPC)
[3] = dose: 100.0 mg/kg/injection, schedule: Q04DX003 (ip), vehicle: Klucel (hydroxypropylcellulose) (HPC)
[4] = dose: 200.0 mg/kg/injection, schedule: Q04DX003 (ip), vehicle: Klucel (hydroxypropylcellulose) (HPC)
[5] = dose: 400.0 mg/kg/injection, schedule: Q04DX003 (ip), vehicle: Klucel (hydroxypropylcellulose) (HPC)

Measured: T/C

CC(C)OC(=S)SSC(=S)OC(C)C
inactive: dose: 50.0 mg/kg/injection, schedule: Q01DX009 (ip), vehicle: Klucel (hydroxypropylcellulose) (HPC) 105 % of control | dose: 100.0 mg/kg/injection, schedule: Q01DX001 (ip), vehicle: saline 96 % of control | [1] 92 % of control | dose: 100.0 mg/kg/injection, schedule: Q04DX003 (ip), vehicle: other 107 % of control | dose: 200.0 mg/kg/injection, schedule: Q01DX001 (ip), vehicle: saline 100 % of control | [2] 90 % of control | dose: 200.0 mg/kg/injection, schedule: Q04DX003 (ip), vehicle: other 98 % of control | dose: 400.0 mg/kg/injection, schedule: Q01DX001 (ip), vehicle: saline 102 % of control

CC(O)COCCOCCO (configuration not stated)
inactive: dose: 100.0 mg/kg/injection, schedule: Q04DX003 (ip), vehicle: saline 96 % of control | dose: 200.0 mg/kg/injection, schedule: Q04DX003 (ip), vehicle: saline 99 % of control | dose: 400.0 mg/kg/injection, schedule: Q04DX003 (ip), vehicle: saline 94 % of control

C/C=C1\CCC2C(=C1C)CC1C2CC=C2CC(OC(C)=O)CCC21C (configuration not stated)
inactive: [1] 97 % of control | [3] 94 % of control | [2] 87 % of control | [4] 91 % of control | dose: 400.0 mg/kg/injection, schedule: Q01DX009 (ip), vehicle: Klucel (hydroxypropylcellulose) (HPC) 90 % of control | [5] 93 % of control

CC1=C(C)C2(C)C1(C)C1(C)C(C)=C(C)C21C (configuration not stated)
inactive: dose: 100.0 mg/kg/injection, schedule: Q01DX009 (ip), vehicle: acetone 86 % of control | dose: 200.0 mg/kg/injection, schedule: Q01DX009 (ip), vehicle: acetone 86 % of control

Cc1c(N)cccc1N
inactive: dose: 12.5 mg/kg/injection, schedule: Q01DX009 (ip), vehicle: saline with Tween-80 119 % of control | dose: 12.5 mg/kg/injection, schedule: Q04DX003 (ip), vehicle: saline with Tween-80 95 % of control | dose: 25.0 mg/kg/injection, schedule: Q01DX009 (ip), vehicle: saline with Tween-80 108 % of control | dose: 25.0 mg/kg/injection, schedule: Q04DX003 (ip), vehicle: saline with Tween-80 117 % of control | dose: 50.0 mg/kg/injection, schedule: Q04DX003 (ip), vehicle: saline with Tween-80 117 % of control

O=C1c2ccccc2-c2c(N=Cc3ccc([N+](=O)[O-])cc3)cccc21
inactive: [3] 102 % of control | [4] 89 % of control | [5] 96 % of control

CC(=O)OC(C(N)=O)C(OC(C)=O)C(=O)O (configuration not stated)
inactive: dose: 100.0 mg/kg/injection, schedule: Q04DX003 (ip), vehicle: water 96 % of control | dose: 200.0 mg/kg/injection, schedule: Q04DX003 (ip), vehicle: water 100 % of control | dose: 400.0 mg/kg/injection, schedule: Q04DX003 (ip), vehicle: water 97 % of control

CCOC(=O)c1ccc(NC(=O)c2cccc(F)c2)cc1
inactive: dose: 100.0 mg/kg/injection, schedule: Q04DX002 (ip), vehicle: saline 91 % of control | dose: 200.0 mg/kg/injection, schedule: Q04DX002 (ip), vehicle: saline 105 % of control | dose: 400.0 mg/kg/injection, schedule: Q04DX002 (ip), vehicle: saline 109 % of control

CCOC(=O)NN(C(=O)OCC)c1c(NN)n(C)c(=O)n(C)c1=O
inactive: dose: 75.0 mg/kg/injection, schedule: Q04DX003 (ip), vehicle: saline 107 % of control | dose: 150.0 mg/kg/injection, schedule: Q04DX003 (ip), vehicle: saline 93 % of control | dose: 300.0 mg/kg/injection, schedule: Q04DX003 (ip), vehicle: saline 91 % of control

C=CCNC(=S)Nc1ccc(OC(=O)NC2CCCCC2)cc1
inactive: dose: 100.0 mg/kg/injection, schedule: Q01DX009 (ip), vehicle: saline with Tween-80 110 % of control | dose: 100.0 mg/kg/injection, schedule: Q04DX003 (ip), vehicle: saline with Tween-80 110 % of control | dose: 200.0 mg/kg/injection, schedule: Q01DX009 (ip), vehicle: saline with Tween-80 106 % of control | dose: 200.0 mg/kg/injection, schedule: Q04DX003 (ip), vehicle: saline with Tween-80 113 % of control | dose: 400.0 mg/kg/injection, schedule: Q01DX009 (ip), vehicle: saline with Tween-80 102 % of control | dose: 400.0 mg/kg/injection, schedule: Q04DX003 (ip), vehicle: saline with Tween-80 98 % of control
